# According to patent publication US7138361B2, “Herbicidal heterocycles” (E. I. du Pont de Nemours and Company, priority 2000, dated 2006):
# Key:
# Type in all cases: in vivo
# [1] = test system: crabgrass (Digitaria sanguinalis); assay: Test B preemergence; conditions: scale 0 to 100, 0 no effect, 100 complete control
# Outline: (§1)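 Ratings on a 0 to 100 visual scale (100 complete control) compare treated plants with controls 13 to 15 days after application. Treatments were pre- or postemergence sprays of compound in non-phytotoxic solvent with surfactant.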
# [2] = test system: lambsquarters (Chenopodium album); assay: Test B preemergence; conditions: scale 0 to 100, 0 no effect, 100 complete control
# Outline: as §1
# corn (Zea mays) = assay: Test B preemergence; conditions: scale 0 to 100, 0 no effect, 100 complete control
# Outline: as §1
# [3] = test system: giant foxtail (Setaria faberii); assay: Test B preemergence; conditions: scale 0 to 100, 0 no effect, 100 complete control
# Outline: as §1
# [4] = test system: cocklebur (Xanthium strumarium); assay: Test B preemergence; conditions: scale 0 to 100, 0 no effect, 100 complete control
# Outline: as §1
# [5] = test system: barnyardgrass (Echinochloa crus-galli); assay: Test B preemergence; conditions: scale 0 to 100, 0 no effect, 100 complete control
# Outline: as §1
# rice (Oryza saliva) = assay: Test B preemergence; conditions: scale 0 to 100, 0 no effect, 100 complete control
# Outline: as §1
# [6] = test system: velvetleaf (Abutilon theophrasti); assay: Test B preemergence; conditions: scale 0 to 100, 0 no effect, 100 complete control
# Outline: as §1
# [7] = test system: Surinam grass (Brachiaria decumbens); assay: Test B preemergence; conditions: scale 0 to 100, 0 no effect, 100 complete control
# Outline: as §1
# [8] = test system: pigweed (Amaranthus retroflexus); assay: Test B preemergence; conditions: scale 0 to 100, 0 no effect, 100 complete control
# Outline: as §1
# [9] = test system: morning glory (Ipomoea hederacea); assay: Test B preemergence; conditions: scale 0 to 100, 0 no effect, 100 complete control
# Outline: as §1
# [10] = test system: crabgrass (Digitaria sanguinalis); assay: Test C preemergence; conditions: for Plant response rating (0 to 100), Crabgrass: Rate 250 g/ha, visual evaluation after 12 to 14 days
# Outline: (§2)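 Pre- and postemergence treatments used a non-phytotoxic solvent/surfactant formulation; post-treated plants measured 2 to 18 cm. Greenhouse hold 12–14 d; % control estimated visually relative to controls.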
# [11] = test system: lambsquarters (Chenopodium album); assay: Test C preemergence; conditions: for Plant response rating (0 to 100), Lambsquarters: Rate 250 g/ha, visual evaluation after 12 to 14 days
# Outline: as §2
# [12] = test system: woolly cupgrass (Eriochloa villosa); assay: Test C preemergence; conditions: for Plant response rating (0 to 100), Cupgrass, Woolly: Rate 250 g/ha, visual evaluation after 12 to 14 days
# Outline: as §2
# [13] = test system: goosegrass (Eleusine indica); assay: Test C preemergence; conditions: for Plant response rating (0 to 100), Goosegrass: Rate 250 g/ha, visual evaluation after 12 to 14 days
# Outline: as §2
# [14] = test system: cocklebur (Xanthium strumarium); assay: Test C preemergence; conditions: for Plant response rating (0 to 100), Cocklebur: Rate 250 g/ha, visual evaluation after 12 to 14 days
# Outline: as §2
# soybean (Glycine max) = assay: Test C preemergence; conditions: for Plant response rating (0 to 100), Soybean: Rate 250 g/ha, visual evaluation after 12 to 14 days
# Outline: as §2
# [15] = test system: Surinam grass (Brachiaria decumbens); assay: Test C preemergence; conditions: for Plant response rating (0 to 100), Surinam grass: Rate 250 g/ha, visual evaluation after 12 to 14 days
# Outline: as §2
# Nightshade = assay: Test C preemergence
# [16] = test system: pigweed (Amaranthus retroflexus); assay: Test C preemergence; conditions: for Plant response rating (0 to 100), Pigweed: Rate 250 g/ha, visual evaluation after 12 to 14 days
# Outline: as §2
# [17] = Rate 62 g/ha, scale 0 to 100, 0 no effect, 100 complete control
# [18] = preemergence, Rate 31 g/ha, scale 0 to 100
# [19] = preemergence, Rate 125 g/ha, scale 0 to 100, 0 no effect, 100 complete control
# [20] = Rate 125 g/ha, scale 0 to 100, 0 no effect, 100 complete control
smiles,measurement,setting,value
CC(C)c1ccn(C2OCN(c3cccc(C(F)(F)F)c3)C2=O)n1 (stereo not shown) [Compound 27],"Plant response rating, Crabgrass","[1]; Preemergence, Rate 500 g/ha",90
same,"Plant response rating, Crabgrass","[1]; preemergence, Rate 125 g/ha",0
same,"Plant response rating, Lambsquarters","[2]; Preemergence, Rate 500 g/ha",100
same,"Plant response rating, Lambsquarters","[2]; preemergence, Rate 125 g/ha",100
same,"Plant response rating, Corn","corn (Zea mays); Preemergence, Rate 500 g/ha",0
same,"Plant response rating, Corn","corn (Zea mays); preemergence, Rate 125 g/ha",0
same,"Plant response rating, Foxtail, Giant","[3]; Preemergence, Rate 500 g/ha",90
same,"Plant response rating, Foxtail, Giant","[3]; preemergence, Rate 125 g/ha",0
same,"Plant response rating, Cocklebur","[4]; Preemergence, Rate 500 g/ha",0
same,"Plant response rating, Cocklebur","[4]; preemergence, Rate 125 g/ha",0
same,"Plant response rating, Barnyardgrass","[5]; Preemergence, Rate 500 g/ha",100
same,"Plant response rating, Barnyardgrass","[5]; preemergence, Rate 125 g/ha",30
same,"Plant response rating, Rice","rice (Oryza saliva); Preemergence, Rate 500 g/ha",40
same,"Plant response rating, Rice","rice (Oryza saliva); preemergence, Rate 125 g/ha",0
same,"Plant response rating, Velvetleaf","[6]; Preemergence, Rate 500 g/ha",0
same,"Plant response rating, Velvetleaf","[6]; preemergence, Rate 125 g/ha",0
same,"Plant response rating, Surinam grass","[7]; Preemergence, Rate 500 g/ha",0
same,"Plant response rating, Surinam grass","[7]; preemergence, Rate 125 g/ha",0
same,"Plant response rating, Pigweed","[8]; Preemergence, Rate 500 g/ha",100
same,"Plant response rating, Pigweed","[8]; preemergence, Rate 125 g/ha",100
same,"Plant response rating, Morningglory","[9]; Preemergence, Rate 500 g/ha",0
same,"Plant response rating, Morningglory","[9]; preemergence, Rate 125 g/ha",0
same,"Plant response rating, Crabgrass",[10]; [17],100
same,"Plant response rating, Crabgrass",[10]; [18],90
same,"Plant response rating (0 to 100), Crabgrass",[10]; preemergence,100
same,"Plant response rating, Crabgrass",[10]; [19],100
same,"Plant response rating, Lambsquarters",[11]; [17],100
same,"Plant response rating, Lambsquarters",[11]; [18],100
same,"Plant response rating (0 to 100), Lambsquarters",[11]; preemergence,100
same,"Plant response rating, Lambsquarters",[11]; [19],100
same,"Plant response rating, Cupgrass, Woolly",[12]; [17],50
same,"Plant response rating, Cupgrass, Woolly",[12]; [18],50
same,"Plant response rating (0 to 100), Cupgrass, Woolly",[12]; preemergence,100
same,"Plant response rating, Cupgrass, Woolly",[12]; [19],80
same,"Plant response rating, Goosegrass",[13]; [17],90
same,"Plant response rating, Goosegrass",[13]; [18],40
same,"Plant response rating (0 to 100), Goosegrass",[13]; preemergence,100
same,"Plant response rating, Goosegrass",[13]; [19],100
same,"Plant response rating, Cocklebur",[14]; [17],0
same,"Plant response rating, Cocklebur",[14]; [18],0
same,"Plant response rating (0 to 100), Cocklebur",[14]; preemergence,0
same,"Plant response rating, Cocklebur",[14]; [19],0
same,"Plant response rating, Soybean",soybean (Glycine max); [17],30
same,"Plant response rating, Soybean",soybean (Glycine max); [18],0
same,"Plant response rating (0 to 100), Soybean",soybean (Glycine max); preemergence,50
same,"Plant response rating, Soybean",soybean (Glycine max); [19],40
same,"Plant response rating, Surinam grass",[15]; [17],50
same,"Plant response rating, Surinam grass",[15]; [18],0
same,"Plant response rating (0 to 100), Surinam grass",[15]; preemergence,80
same,"Plant response rating, Surinam grass",[15]; [19],50
same,"Plant response rating, Nightshade","Nightshade; Rate 31 g/ha, scale 0 to 100",0
same,"Plant response rating, Nightshade",Nightshade; [17],0
same,"Plant response rating, Nightshade",Nightshade; [20],0
same,"Plant response rating, Pigweed",[16]; [17],0
same,"Plant response rating, Pigweed",[16]; [18],100
same,"Plant response rating (0 to 100), Pigweed",[16]; preemergence,100
same,"Plant response rating, Pigweed",[16]; [19],100
O=C1C(n2ccc(C3CC3)n2)OCN1c1cccc(C(F)(F)F)c1 (stereo not shown) [Compound 28],"Plant response rating, Crabgrass","[1]; Preemergence, Rate 500 g/ha",100
same,"Plant response rating, Crabgrass","[1]; preemergence, Rate 125 g/ha",20
same,"Plant response rating, Lambsquarters","[2]; Preemergence, Rate 500 g/ha",100
same,"Plant response rating, Lambsquarters","[2]; preemergence, Rate 125 g/ha",100
same,"Plant response rating, Corn","corn (Zea mays); Preemergence, Rate 500 g/ha",0
same,"Plant response rating, Corn","corn (Zea mays); preemergence, Rate 125 g/ha",0
same,"Plant response rating, Foxtail, Giant","[3]; Preemergence, Rate 500 g/ha",100
same,"Plant response rating, Foxtail, Giant","[3]; preemergence, Rate 125 g/ha",20
same,"Plant response rating, Cocklebur","[4]; Preemergence, Rate 500 g/ha",100
same,"Plant response rating, Cocklebur","[4]; preemergence, Rate 125 g/ha",0
same,"Plant response rating, Barnyardgrass","[5]; Preemergence, Rate 500 g/ha",100
same,"Plant response rating, Barnyardgrass","[5]; preemergence, Rate 125 g/ha",50
same,"Plant response rating, Rice","rice (Oryza saliva); Preemergence, Rate 500 g/ha",40
same,"Plant response rating, Velvetleaf","[6]; Preemergence, Rate 500 g/ha",0
same,"Plant response rating, Surinam grass","[7]; Preemergence, Rate 500 g/ha",70
same,"Plant response rating, Surinam grass","[7]; preemergence, Rate 125 g/ha",0
same,"Plant response rating, Pigweed","[8]; Preemergence, Rate 500 g/ha",100
same,"Plant response rating, Morningglory","[9]; Preemergence, Rate 500 g/ha",0
same,"Plant response rating, Crabgrass",[10]; [17],90
same,"Plant response rating, Crabgrass",[10]; [18],90
same,"Plant response rating (0 to 100), Crabgrass",[10]; preemergence,100
same,"Plant response rating, Crabgrass",[10]; [19],100
same,"Plant response rating, Lambsquarters",[11]; [17],100
same,"Plant response rating, Lambsquarters",[11]; [18],100
same,"Plant response rating (0 to 100), Lambsquarters",[11]; preemergence,100
same,"Plant response rating, Lambsquarters",[11]; [19],100
same,"Plant response rating, Cupgrass, Woolly",[12]; [17],50
same,"Plant response rating, Cupgrass, Woolly",[12]; [18],30
same,"Plant response rating (0 to 100), Cupgrass, Woolly",[12]; preemergence,100
same,"Plant response rating, Cupgrass, Woolly",[12]; [19],70
same,"Plant response rating, Goosegrass",[13]; [17],80
same,"Plant response rating, Goosegrass",[13]; [18],40
same,"Plant response rating (0 to 100), Goosegrass",[13]; preemergence,100
same,"Plant response rating, Goosegrass",[13]; [19],100
same,"Plant response rating, Cocklebur",[14]; [18],0
same,"Plant response rating (0 to 100), Cocklebur",[14]; preemergence,0
same,"Plant response rating, Cocklebur",[14]; [19],0
same,"Plant response rating, Soybean",soybean (Glycine max); [17],0
same,"Plant response rating, Soybean",soybean (Glycine max); [18],0
same,"Plant response rating (0 to 100), Soybean",soybean (Glycine max); preemergence,40
same,"Plant response rating, Soybean",soybean (Glycine max); [19],40
same,"Plant response rating, Surinam grass",[15]; [17],20
same,"Plant response rating, Surinam grass",[15]; [18],20
same,"Plant response rating (0 to 100), Surinam grass",[15]; preemergence,60
same,"Plant response rating, Surinam grass",[15]; [19],60
same,"Plant response rating, Nightshade","Nightshade; Rate 31 g/ha, scale 0 to 100",0
same,"Plant response rating, Nightshade",Nightshade; [17],0
same,"Plant response rating, Nightshade",Nightshade; [20],70
same,"Plant response rating, Pigweed",[16]; [17],70
same,"Plant response rating, Pigweed",[16]; [18],70
same,"Plant response rating (0 to 100), Pigweed",[16]; preemergence,50
same,"Plant response rating, Pigweed",[16]; [19],100
